In US10703764B2, “Benzopiperazine compositions as BET bromodomain inhibitors” (FORMA Therapeutics, Inc., priority 2013, dated 2020):

Assays:
BRD4 BD1 = biological target: T1, BRD4 BD1 (Homo sapiens, UniProt O60885); test: AlphaScreen binding assay, BRD4 Bromodomain 1
T1 construct: made in house
How it was run: (§1)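 An AlphaScreen competition format was used with His-BRD4 BD1 or BD2 and biotin-H4 K5/8/12/16-acetyl peptide, each at matched final levels of 50 nM (BD1) or 100 nM (BD2). Incubation in HEPES/NaCl buffer with 0.1% BSA and 0.01% Triton X-100 ran ≥1 h before IC50 determination.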

BRD4 BD2 = biological target: T2, BRD4 BD2 (Homo sapiens, UniProt O60885); test: AlphaScreen binding assay, BRD4 Bromodomain 2
T2 construct: made in house
How it was run: as §1

Row | Compound | IC50 (BRD4 BD1) [nM] | IC50 (BRD4 BD2) [nM]
1 | CC(=O)N1c2ccc(-c3ccc(S(C)(=O)=O)cc3)cc2N(C(=O)Nc2cccc(Cl)c2)C[C@@H]1C [Example I-969] | > 10000 | > 500
2 | CC(=O)N1c2ccc(-c3ccc(S(C)(=O)=O)cc3)cc2N(C(=O)Nc2cccc(C)c2)C[C@@H]1C [Example I-971] | > 10000 | 50 to 500
3 | COc1ccccc1CNC(=O)N1C[C@H](C)N(C(C)=O)c2ccc(-c3ccc(S(C)(=O)=O)cc3)cc21 [Example I-972] | > 10000 | > 500
4 | CC(=O)N1c2ccc(-c3ccc(S(C)(=O)=O)cc3)cc2N(C(=O)Nc2ccc(Cl)cc2)C[C@@H]1C [Example I-975] | > 10000 | > 500
5 | CC(=O)N1c2ccc(-c3ccc(S(C)(=O)=O)cc3)cc2N(C(=O)NCc2ccc(C)cc2)C[C@@H]1C [Example I-976] | > 10000 | > 500
6 | CC(=O)N1c2ccc(-c3ccc(S(C)(=O)=O)cc3)cc2N(C(=O)NCc2ccccc2Cl)C[C@@H]1C [Example I-977] | > 10000 | > 500
7 | CC(=O)N1c2ccc(-c3ccc(S(C)(=O)=O)cc3)cc2N(C(=O)NCC(C)C)C[C@@H]1C [Example I-978] | > 10000 | > 500
8 | CC(=O)N1c2ccc(-c3ccc(S(C)(=O)=O)cc3)cc2N(C(=O)NCc2ccco2)C[C@@H]1C [Example I-980] | > 10000 | > 500
9 | CC(=O)N1c2ccc(-c3ccc(S(C)(=O)=O)cc3)cc2N(C(=O)c2ccc(S(=O)(=O)N(C)C)o2)C[C@@H]1C [Example I-983] | > 10000 | > 500
10 | CC(=O)N1c2ccc(-c3ccc(S(C)(=O)=O)cc3)cc2N(C(=O)c2ccc(CN(C)C)o2)C[C@@H]1C [Example I-984] | > 10000 | 50 to 500
11 | CC(=O)N1c2ccc(-c3ccc(S(C)(=O)=O)cc3)cc2N(C(=O)c2cccc(N)c2)C[C@@H]1C [Example I-985] | > 10000 | 50 to 500
12 | CC(=O)N1c2ccc(-c3ccc(S(C)(=O)=O)cc3)cc2N(C(=O)c2ccc(N)cc2)C[C@@H]1C [Example I-986] | > 10000 | > 500
13 | C[C@H]1CN(C(=O)c2ccco2)c2cc(-c3ccc(S(C)(=O)=O)cc3)ccc2N1C(N)=O [Example I-987] | > 10000 | > 500
14 | CC(=O)N1c2ccc(-c3cnn(C4CC4)c3)cc2N(C(=O)Oc2ncccc2C(F)(F)F)C[C@@H]1C [Example I-1188] | > 10000 | > 500
15 | CC(=O)N1c2ccc(-c3ccc4c(c3)CCN4S(C)(=O)=O)cc2N(C(=O)Oc2cccnc2)C[C@@H]1C [Example I-1290] | 1000 to 10000 | 50 to 500
16 | COC(=O)N1c2ccc(-c3ccc4c(c3)CCN4S(C)(=O)=O)cc2N(C(=O)Oc2cccnc2)C[C@@H]1C [Example I-1291] | 1000 to 10000 | > 500
17 | COC(=O)N1c2ccc(-c3ccc(N(C)S(C)(=O)=O)cc3)cc2N(C(=O)Oc2cccnc2)C[C@@H]1C [Example I-1293] | 1000 to 10000 | > 500
18 | COC(=O)N1c2ccc(-c3cnn(C4CNC4)c3)cc2N(C(=O)Oc2cccnc2)C[C@@H]1C [Example I-1295] | 1000 to 10000 | 50 to 500
19 | COC(=O)N1c2ccc(-c3cnn(C4CCNCC4)c3)cc2N(C(=O)Oc2cccnc2)C[C@@H]1C [Example I-1296] | 1000 to 10000 | 50 to 500
20 | COC(=O)N1c2ccc(-c3cnn(C(C)(C)CO)c3)cc2N(C(=O)Oc2ccccn2)C[C@@H]1C [Example I-1313] | 1000 to 10000 | 50 to 500
21 | CC(=O)N1c2ccc(-c3ccc(S(C)(=O)=O)cc3)cc2N(C(=O)Oc2ccccn2)C[C@@H]1C [Example I-1314] | 1000 to 10000 | 50 to 500
22 | COC(=O)N1c2ccc(-c3ccc(S(C)(=O)=O)cc3)cc2N(C(=O)Oc2ccccn2)C[C@@H]1C [Example I-1315] | 1000 to 10000 | 50 to 500
23 | COC(=O)N1c2ccc(-c3ccc(NS(C)(=O)=O)cc3)cc2N(C(=O)Oc2ccccn2)C[C@@H]1C [Example I-1317] | 1000 to 10000 | 50 to 500
24 | CC(=O)N1c2ccc(-c3cnn(CCS(C)(=O)=O)c3)cc2N(C(=O)Oc2ccccn2)C[C@@H]1C [Example I-1318] | 1000 to 10000 | 50 to 500

Continued, values first:

Row | IC50 (BRD4 BD1) [nM] | IC50 (BRD4 BD2) [nM] | Compound
25 | 1000 to 10000 | 50 to 500 | COc1ccccc1NC(=O)N1C[C@H](C)N(C(C)=O)c2ccc(-c3ccc(S(C)(=O)=O)cc3)cc21 [Example I-970]
26 | 1000 to 10000 | 50 to 500 | CC(=O)N1c2ccc(-c3ccc(S(C)(=O)=O)cc3)cc2N(C(=O)Nc2ccccc2Cl)C[C@@H]1C [Example I-973]
27 | 1000 to 10000 | 50 to 500 | CC(=O)N1c2ccc(-c3ccc(S(C)(=O)=O)cc3)cc2N(C(=O)Nc2ccc(C)cc2)C[C@@H]1C [Example I-974]
28 | 1000 to 10000 | 50 to 500 | CC(=O)N1c2ccc(-c3ccc(S(C)(=O)=O)cc3)cc2N(C(=O)Nc2ccsc2)C[C@@H]1C [Example I-979]
29 | 1000 to 10000 | 50 to 500 | CC(=O)N1c2ccc(-c3ccc(S(C)(=O)=O)cc3)cc2N(C(=O)c2cc(C)[nH]n2)CC1C (centres unmarked) [Example I-981]
30 | 1000 to 10000 | > 500 | CC(=O)N1c2ccc(-c3ccc(S(C)(=O)=O)cc3)cc2N(C(=O)c2ncc[nH]2)CC1C (centres unmarked) [Example I-982]
31 | 1000 to 10000 | 50 to 500 | CC(=O)N1c2ccc(NCc3ccccc3)cc2N(C(=O)c2ccco2)C[C@@H]1C [Example I-989]
32 | 1000 to 10000 | 50 to 500 | CC(=O)N1c2ccc(N(C)Cc3ccccc3)cc2N(C(=O)c2ccco2)C[C@@H]1C [Example I-990]
33 | 1000 to 10000 | 50 to 500 | CC(=O)N1c2ccc(Nc3ccccc3)cc2N(C(=O)c2ccco2)C[C@@H]1C [Example I-991]
34 | 1000 to 10000 | > 500 | CC(=O)N1c2ccc(N(C)c3ccccc3)cc2N(C(=O)c2ccco2)C[C@@H]1C [Example I-992]
35 | 1000 to 10000 | 50 to 500 | CC(=O)N1c2ccc(N3CCCC3)cc2N(C(=O)c2ccco2)C[C@@H]1C [Example I-993]
36 | 1000 to 10000 | > 500 | C[C@H]1CN(C(=O)OC2COC2)c2cc(-c3cnn(C4CC4)c3)ccc2N1C(=O)C1CC1 [Example I-998]
37 | 1000 to 10000 | 50 to 500 | COC(=O)N1c2ccc(-c3cnn(C4CC4)c3)cc2N(C(=O)OC2COC2)C[C@@H]1C [Example I-999]
38 | 1000 to 10000 | 50 to 500 | CC(=O)N1c2ccc(-c3cnn(CCO)c3)cc2N(C(=O)Oc2ccc(F)cc2F)C[C@@H]1C [Example I-1009]
39 | 1000 to 10000 | 50 to 500 | CC(=O)N1c2ccc(-c3ccc(S(C)(=O)=O)cc3)cc2N(C(=O)Oc2ccc(F)cc2F)C[C@@H]1C [Example I-1010]
40 | 1000 to 10000 | > 500 | CC(=O)N1c2ccc(-c3cnn(CCS(C)(=O)=O)c3)cc2N(C(=O)Oc2ccc(F)cc2)C[C@@H]1C [Example I-1017]
41 | 1000 to 10000 | 50 to 500 | COC(=O)N1c2ccc(-c3cnn(CCO)c3)cc2N(C(=O)Oc2ccc(F)cc2)C[C@@H]1C [Example I-1022]

Row | IC50 (BRD4 BD1) [nM] | IC50 (BRD4 BD2) [nM] | Compound
42 | 1000 to 10000 | 50 to 500 | CC(=O)N1c2ccc(-c3cnn(C4CC4)c3)cc2N(C(=O)Oc2ccc(Cl)cc2Cl)C[C@@H]1C [Example I-1193]
43 | 1000 to 10000 | 50 to 500 | CC(=O)N1c2ccc(-c3cnn(C4CC4)c3)cc2N(C(=O)Oc2c(Cl)cc(Cl)c3cccnc23)C[C@@H]1C [Example I-1197]
44 | 1000 to 10000 | 50 to 500 | CC(=O)N1c2ccc(-c3cnn(C4CC4)c3)cc2N(C(=O)Oc2cc(F)ccc2C)C[C@@H]1C [Example I-1200]
45 | 1000 to 10000 | 50 to 500 | CC(=O)N1c2ccc(-c3cnn(C4CC4)c3)cc2N(C(=O)Oc2cnc3ccccc3c2)C[C@@H]1C [Example I-1203]
46 | 1000 to 10000 | 50 to 500 | COc1ncc(F)cc1OC(=O)N1C[C@H](C)N(C(C)=O)c2ccc(-c3cnn(C4CC4)c3)cc21 [Example I-1208]
47 | 1000 to 10000 | 50 to 500 | COc1cc(OC(=O)N2C[C@H](C)N(C(C)=O)c3ccc(-c4cnn(C5CC5)c4)cc32)c(Cl)cn1 [Example I-1209]
48 | 1000 to 10000 | 50 to 500 | COc1ncc(C)cc1OC(=O)N1C[C@H](C)N(C(C)=O)c2ccc(-c3cnn(C4CC4)c3)cc21 [Example I-1210]
49 | 1000 to 10000 | 50 to 500 | COC(=O)N1c2ccc(-c3ccc(S(C)(=O)=O)cc3)cc2N(C(=O)Oc2cccnc2)C[C@@H]1C [Example I-1276]
50 | 1000 to 10000 | 50 to 500 | CC(=O)N1c2ccc(-c3ccc(NS(C)(=O)=O)cc3)cc2N(C(=O)Oc2cccnc2)C[C@@H]1C [Example I-1277]
51 | 1000 to 10000 | > 500 | COC(=O)N1c2ccc(-c3ccc(NS(C)(=O)=O)cc3)cc2N(C(=O)Oc2cccnc2)C[C@@H]1C [Example I-1278]
52 | 1000 to 10000 | 50 to 500 | COC(=O)N1c2ccc(-c3cnn(CCS(C)(=O)=O)c3)cc2N(C(=O)Oc2cccnc2)C[C@@H]1C [Example I-1280]
53 | 1000 to 10000 | > 500 | COC(=O)N1c2ccc(-c3cnn(CCO)c3)cc2N(C(=O)Oc2cccnc2)C[C@@H]1C [Example I-1282]
54 | 1000 to 10000 | 50 to 500 | COC(=O)N1c2ccc(-c3cnn(C4CC4)c3)cc2N(C(=O)Oc2cccnc2)C[C@@H]1C [Example I-1283]
55 | 1000 to 10000 | 50 to 500 | COC(=O)N1c2ccc(-c3cnn(C(C)(C)CO)c3)cc2N(C(=O)Oc2cccnc2)C[C@@H]1C [Example I-1285]
56 | 1000 to 10000 | > 500 | COC(=O)N1c2ccc(-c3ccc(N4CCCS4(=O)=O)cc3)cc2N(C(=O)Oc2cccnc2)C[C@@H]1C [Example I-1287]
57 | 1000 to 10000 | 50 to 500 | CC(=O)N1c2ccc(-c3cnn(CCC#N)c3)cc2N(C(=O)Oc2cccnc2)C[C@@H]1C [Example I-1288]
58 | 1000 to 10000 | 50 to 500 | COC(=O)N1c2ccc(-c3cnn(CCC#N)c3)cc2N(C(=O)Oc2cccnc2)C[C@@H]1C [Example I-1289]
